Experimental data as given in US20040039157A1, “Anti-angiogenic peptides” (priority 2000, published 2004).

Columns and labels:
SVEC4-10 cells = experiment: Tubule formation assay on GF-reduced Matrigel, SVEC4-10 cells; type: cell-based, Murine; details: FIG. 4, 6 h
Protocol: Adult human dermal microvascular endothelial cells (HuDMECs) were obtained commercially (TCS Biologicals, Buckinghamshire, United Kingdom) and cultured in microvascular endothelial cell growth medium (EGM). This medium contains heparin (10 ng/ml), hydrocortisone, human epidermal growth factor (10 ng/ml), human fibroblast growth factor (10 ng/ml) (such endothelial growth factors are necessary for routine passaging of HuDMECs in culture) and dibutyryl cyclic AMP. This was supplemented with 5% heat-inactivated FCS, 50 μg/ml gentamicin and 50 ng/ml amphotericin B (TCS Biologicals, United Kingdom). Murine endothelial cells (SVEC 4-10) were obtained from the ATCC and cultured in DMEM+10% FCS. Cells were grown at 37° C. in a 100% humidified incubator with a gas phase of 5% CO2 and routinely screened for Mycoplasma. Prior to their use in the assays indicated below, HuDMECs were grown to 80% confluency, incubated in DMEM+1% FCS for 2 h, then harvested with 0.05% trypsin solution, washed twice and resuspended to the cell density required for each assay (see below).
24 well plates were coated with 30 μl/well of growth factor-reduced (GF-reduced) Matrigel (Becton Dickinson Labware, Bedford, Mass.). […] Tubule formation was assessed by counting the number of tubule branches and the total area covered by tubules in each field of view using image analysis software supplied by Scion Image.

CT26 tumours = experiment: In vivo efficacy on growth of subcutaneous CT26 tumours; parameters: species or system Balb/c mice; details: daily ip α1-24, p<0.001
Protocol: Experiments were performed on six-week-old Balb/C mice weighing 15 g, obtained from Sheffield Field Laboratories. All experiments were approved by the Home Office Project Licence Number PPL50/1414.
The CT26 cell line was maintained by in vitro passage in Dulbecco's Minimal Eagles Medium containing 10% foetal calf serum, and 1% penicillin and streptomycin and maintained at 37° C. in humidified atmosphere of 5% CO2 in air. The cell line was routinely checked to ensure freedom from mycoplasma (Mycoplasma rapid detection system, Gena-Probe Incorporated, U.S.A.).
Animals were anaesthetised with an intraperitoneal injection of diazepam (0.5 mg/ml, Dumex Ltd.) and hypnorm (fentanyl citrate 0.0315 mg/ml and fluanisone 1 mg/ml, Janssen Pharmaceutical Ltd.) in the ratio of 1:1 at a volume of 0.1 ml/200 g body weight, with supplementation as required to maintain adequate anaesthesia. […] Tumour growth and animal weights were monitored daily.
Tumour growth was measured daily and when the majority of animals in the cohort had tumour volumes of >100 mm^3 but <350 mm^3 animals were divided into experimental and control groups. […]
Tumour volumes were assessed by calliper measurements of the perpendicular diameters and volumes estimated using the equation: […]
where a is the smaller and b the larger diameter Animals were weighed on a daily basis and the general well being monitored.

With “ADSGEGDFLAEGGGVRGPRVVERH (ADSGEGDFLAEGGGVRGPRVVERH) [α1-24, 24 amino acid peptide from the amino terminus of the fibrinogen α chain]” the “tubule formation (area covered by tubules)” value (SVEC4-10 cells; absence of growth factors) was “significantly (p<0.03) reduced tubule formation”, the “tubule formation (area covered by tubules)” value (SVEC4-10 cells; presence of growth factors (VEGF 10 ng/ml or bFGF 10 ng/ml)) was “significantly (p<0.03) reduced tubule formation” and the final tumour volume (CT26 tumours; Example 1, day 14, starting volume 235±30, vehicle control final 2245±371) was 1341±145 mm^3. It also gave a final tumour volume (CT26 tumours; Example 2, day 12, starting volume 338±39, vehicle control final 3072±255) of 2029±504 mm^3.
